Patent US20230293526A1, “METHOD FOR TREATING CANCER WITH A REVERSE TRANSCRIPTASE INHIBITOR” (PrimeFour Therapeutics, Inc., priority 2020, published 2023)

What was measured:
[1] = system: human LINE-1; test: Human LINE-1 (L1) retrotransposition dual-luciferase reporter assay in HeLa cells; assay type: cell-based; details: Homo sapiens, HeLa, 72 h, read-out: Human LINE-1 IC50 (Human L1 activity inhibition)
Description: Representative compounds were tested for inhibition of retrotransposition activity of human LINE-1 (L1) retrotransposition reporter assay in HeLa cells according to the following procedure.
Human Cervical Adenocarcinoma Cells (HeLa) were cultured in Dulbecco's Modified Eagle's Medium (DMEM) containing 4500 mg/L glucose, L-glutamine, sodium pyruvate and sodium bicarbonate, supplemented with 10% of heat inactivated fetal bovine serum (FBS). Cells were grown at 37° C. in an atmosphere of 5% CO2. The dual luciferase-encoding plasmid pYX017 was provided by Prof Wenfeng An (Xie, et al., 2011, Nucleic Acids Res).
The reporter assay was performed in 96-well white, optical bottom plates (Thermo Fisher, 165306). 24 hours prior to transfection, HeLa cells were seeded in a density of 2,500 cells per well, in 50 μL of DMEM, 10% FBS media volume. Cells were incubated at 37° C. in an atmosphere of 5% CO2. Seeding was optimized to achieve approximately 30% cell confluency on the day of transfection. A transfection mix was prepared by combining transfection reagent FuGENE® HD (Promega, E2311) and plasmid DNA (100 ng per well) in a 3:1 ratio, in OpiMEM media (Thermo Fisher, 31985062). Next, 5 μL of the transfection mix was combined with 20 μL of DMEM, 10% FBS media, and 25 μL of this mix was added into each well of an assay plate. In each assay plate one column remained untransfected to serve as a blank luminescence signal.
Serial dilution of test compounds was performed in DMSO and transferred to medium. Next, 25 μL of media-diluted compounds series were transferred to an assay plate containing cells and transfection media. The final concentration of DMSO in treated wells was 0.2%. Serial dilutions of compounds were added to an assay plate immediately after transfection. Compounds were tested in triplicates. The assay plate was then incubated with transfection reagent and compounds at 37° C. in an atmosphere of 5% CO2 for 72 hours.
Luciferase reporter activity was quantified with the Dual-Luciferase® Reporter Assay System (Promega) following the manufacturer's manual, with a passive lysis buffer volume increased to 30 μL and lysis incubation time increased to 20 min at room temperature with gentle shaking, to ensure complete cell lysis. Luminescence was measured using a SpectraMax i3×Multi-Mode Microplate Reader, with integration times of 100 ms and 10 ms applied to measure FLuc and RLuc signals, respectively. Relative LNE-1 activity was calculated as Firefly signal/Renilla signal*10,000. In order to determine IC50 values for each compound, dose response data were fit to a logistic using non-linear regression.

[2] = system: cancer cell lines; test: Cancer cell proliferation activity of representative nucleosides, CellTiterGlo 72 h (Example 7, Tables 8 and 9); assay type: cell-based; details: 72 h
Summary of the method: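 Cancer cell lines seeded and incubated at 37° C overnight, then exposed to nucleosides (final DMSO 0.1%) for 72 h at 37° C with 5% or 10% CO2. Viability read by CellTiterGlo luminescence and normalized to 0.1% DMSO (100%) and 10 μM staurosporine (0%) controls.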

CC[C@]1(CO)O[C@@H](n2cnc3c(N)nc(N)nc32)C[C@@H]1O [compound 25]
IC50 [1]: 0.0036 µM
IC50 ([2]; 72 h, 5637, bladder): 3.52 µM
IC50 ([2]; CLS439, bladder): > 50 µM
IC50 ([2]; HS729, muscle): 3.42 µM
IC50 ([2]; J82, bladder): > 50 µM
IC50 ([2]; JAR, placenta): > 50 µM
IC50 ([2]; MT3, breast): 1.62 µM
IC50 ([2]; PC3, prostate): 3.02 µM
IC50 ([2]; RD, muscle): 3.39 µM
IC50 ([2]; T24, bladder): > 50 µM
IC50 ([2]; Homo sapiens, 22Rv1, 72 h, 22RV1, prostate): > 50 µM
IC50 ([2]; Homo sapiens, 786-0, 72 h, 786O, kidney): > 50 µM
IC50 ([2]; Homo sapiens, A204, 72 h, A204, muscle): 1.58 µM
IC50 ([2]; Homo sapiens, A549, 72 h, A549, lung): 3.25 µM
IC50 ([2]; Homo sapiens, A673, 72 h, A673, bone): > 50 µM
IC50 ([2]; Homo sapiens, A2780, 72 h, A2780, ovary): > 50 µM
IC50 ([2]; Homo sapiens, A-375, 72 h, A375, skin): 2.34 µM
IC50 ([2]; Homo sapiens, A-431, 72 h, A431, skin): > 50 µM
IC50 ([2]; Homo sapiens, ACHN, kidney): 5.89 µM
IC50 ([2]; Homo sapiens, ASPC1, 72 h, ASPC1, pancreas): 5.31 µM
IC50 ([2]; Homo sapiens, BT-20, 72 h, BT20, breast): > 50 µM
IC50 ([2]; Homo sapiens, BXPC-3, 72 h, BXPC3, pancreas): 3.54 µM
IC50 ([2]; Homo sapiens, C-33-A, C33A, endometrial): 3.7 µM
IC50 ([2]; Homo sapiens, CAKI-1, 72 h, CAKI1, kidney): 5.33 µM
IC50 ([2]; Homo sapiens, COLO 205, 72 h, COLO205, colon): 1.8 µM
IC50 ([2]; Homo sapiens, COLO-678, 72 h, COLO678, colon): > 50 µM
IC50 ([2]; Homo sapiens, Ca-Ski, CASKI, endometrial): > 50 µM
IC50 ([2]; Homo sapiens, Caco-2, 72 h, CACO2, colon): > 50 µM
IC50 ([2]; Homo sapiens, Calu-6, 72 h, CALU6, lung): 6.13 µM
IC50 ([2]; Homo sapiens, DLD-1, 72 h, DLD1, colon): > 50 µM
IC50 ([2]; Homo sapiens, DU-145, 72 h, DU145, prostate): 6.33 µM
IC50 ([2]; Homo sapiens, EFO-21, 72 h, EFO21, ovary): > 50 µM
IC50 ([2]; Homo sapiens, EJ-28, 72 h, EJ28, bladder): > 50 µM
IC50 ([2]; Homo sapiens, Granta-519, 72 h, GRANTA-519, hematological): 0.89 µM
IC50 ([2]; Homo sapiens, HCT-15, 72 h, HCT15, colon): > 50 µM
IC50 ([2]; Homo sapiens, HCT-116, 72 h, HCT116, colon): 3.2 µM
IC50 ([2]; Homo sapiens, HEK293, 72 h, HEK293, kidney): 6.09 µM
IC50 ([2]; Homo sapiens, HL-60, 72 h, HL-60, hematological): 3.46 µM
IC50 ([2]; Homo sapiens, HT-29, 72 h, HT29, colon): > 50 µM
IC50 ([2]; Homo sapiens, HT-1080, 72 h, HT1080, connective tissue): 3.72 µM
IC50 ([2]; Homo sapiens, HeLa, endometrial): 3.1 µM
IC50 ([2]; Homo sapiens, HepG2, 72 h, HEPG2, liver): > 50 µM
IC50 ([2]; Homo sapiens, Hs-578T, HS578T, breast): > 50 µM
IC50 ([2]; Homo sapiens, IGROV-1, 72 h, IGROV1, ovary): > 50 µM
IC50 ([2]; Homo sapiens, IMR-90, 72 h, IMR90, lung): 3.47 µM
IC50 ([2]; Homo sapiens, JEG-3, 72 h, JEG3, placenta): > 50 µM
IC50 ([2]; Homo sapiens, JIMT-1, 72 h, JIMT1, breast): 5.55 µM
IC50 ([2]; Homo sapiens, K562, 72 h, K-562, hematological): > 50 µM
IC50 ([2]; Homo sapiens, Kasumi 1, 72 h, KASUMI-1, hematological): 0.18 µM
IC50 ([2]; Homo sapiens, L-363, 72 h, L-363, hematological): 3.29 µM
IC50 ([2]; Homo sapiens, LoVo, colon): > 50 µM
IC50 ([2]; Homo sapiens, MCF7, 72 h, MCF7, breast): 5.68 µM
IC50 ([2]; Homo sapiens, MDA-MB-231, 72 h, MDAMB231, breast): 2.85 µM
IC50 ([2]; Homo sapiens, MDA-MB-435, 72 h, MDAMB435, skin): > 50 µM
IC50 ([2]; Homo sapiens, MDA-MB-436, 72 h, MDAMB436, breast): 5.23 µM
IC50 ([2]; Homo sapiens, MDA-MB-468, 72 h, MDAMB468, breast): > 50 µM
IC50 ([2]; Homo sapiens, MG-63, 72 h, MG63, bone): 4.11 µM
IC50 ([2]; Homo sapiens, MHH-ES-1, 72 h, MHHES1, bone): 3.92 µM
IC50 ([2]; Homo sapiens, MIA PaCa-2, 72 h, MIAPACA2, pancreas): > 50 µM
IC50 ([2]; Homo sapiens, MINO, hematological): 1.51 µM
IC50 ([2]; Homo sapiens, MV4-11, 72 h, MV4-11, hematological): 2.25 µM
IC50 ([2]; Homo sapiens, NCI-H23, 72 h, NCI-H23, lung): 1.68 µM
IC50 ([2]; Homo sapiens, NCI-H82, 72 h, NCIH82, lung): > 50 µM
IC50 ([2]; Homo sapiens, NCI-H292, 72 h, NCIH292, lung): 5.22 µM
IC50 ([2]; Homo sapiens, NCI-H460, 72 h, NCIH460, ung): > 50 µM
IC50 ([2]; Homo sapiens, OVCAR-3, 72 h, OVCAR3, ovary): 1.82 µM
IC50 ([2]; Homo sapiens, OVCAR-4, 72 h, OVCAR4, ovary): 3.27 µM
IC50 ([2]; Homo sapiens, PANC-1, 72 h, PANC1, pancreas): > 50 µM
IC50 ([2]; Homo sapiens, PLC-PRF-5, 72 h, PLCPRF5, liver): > 50 µM
IC50 ([2]; Homo sapiens, Panc1005, 72 h, PANC1005, pancreas): 6.31 µM
IC50 ([2]; Homo sapiens, Ramos, hematological): 1.85 µM
IC50 ([2]; Homo sapiens, SAOS-2, 72 h, SAOS2, bone): 1.73 µM
IC50 ([2]; Homo sapiens, SF-268, 72 h, SF268, brain): > 50 µM
IC50 ([2]; Homo sapiens, SF-295, 72 h, SF295, brain): > 50 µM
IC50 ([2]; Homo sapiens, SK-BR-3, 72 h, SKBR3, breast): 3.13 µM
IC50 ([2]; Homo sapiens, SK-HEP1, 72 h, SKHEP1, liver): 4.99 µM
IC50 ([2]; Homo sapiens, SK-LMS-1, 72 h, SKLMS1, uterus): > 50 µM
IC50 ([2]; Homo sapiens, SK-MEL-5, 72 h, SKMEL5, skin): > 50 µM
IC50 ([2]; Homo sapiens, SK-MEL-28, 72 h, SKMEL28, skin): 3.1 µM
IC50 ([2]; Homo sapiens, SK-N-AS, SKNAS, brain): 0.75 µM
IC50 ([2]; Homo sapiens, SK-N-SH, SKNSH, brain): 0.6 µM
IC50 ([2]; Homo sapiens, SK-OV-3, 72 h, SKOV3, ovary): 2.37 µM
IC50 ([2]; Homo sapiens, SNB-75, 72 h, SNB75, brain): > 50 µM
IC50 ([2]; Homo sapiens, SU-DHL10, 72 h, SU-DHL-10, hematological): 4.83 µM
IC50 ([2]; Homo sapiens, SU-DHL-6, 72 h, SU-DHL-6, hematological): 6.01 µM
IC50 ([2]; Homo sapiens, SW-620, 72 h, SW620, colon): > 50 µM
IC50 ([2]; Homo sapiens, TE-671, 72 h, TE671, muscle): 3.05 µM
IC50 ([2]; Homo sapiens, THP-1, 72 h, THP-1, hematological): 3.23 µM
IC50 ([2]; Homo sapiens, U2OS, bone): > 50 µM
IC50 ([2]; Homo sapiens, U-87 MG, U87MG, brain): 5.24 µM
IC50 ([2]; Homo sapiens, UMUC3, 72 h, UMUC3, bladder): > 50 µM
IC50 ([2]; Homo sapiens, UO-31, 72 h, UO31, kidney): > 50 µM
IC50 ([2]; Homo sapiens, WSU-NHL, hematological): 2.55 µM
IC50 ([2]; NCI-H358M, NCIH358M, lung): 1.63 µM
IC50 ([2]; PBMC, hematological): > 50 µM
IC50 ([2]; RD-ES, RDES, bone): > 50 µM
